Measured values: patent US20250034135A1, “ANTI-APOPTOTIC PROTEIN BCL-2 INHIBITOR, PHARMACEUTICAL COMPOSITION AND USES THEREOF” (HANGZHOU HEALZEN THERAPEUTICS CO., LTD., priority 2021, published 2025)

Target: BCL2 (Homo sapiens (Human), UniProt P10415)
Test: Molecular level activity test of anti-apoptotic protein BCL2 (HTRF, binding to Bim peptide)
Conditions: HTRF, binding of BCL2 to Bim peptide; read-out: BCL2 nM (inhibitory activity, IC50)
How it was run: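 Compound (2% DMSO) was mixed with His-tagged recombinant BCL2 and biotinylated Bim peptide for 1 h. Detection used anti-His antibody plus streptavidin-XL665 for 4 h at room temperature, read by time-resolved fluorescence.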

Sequence of BCL2 (P10415 whole entry): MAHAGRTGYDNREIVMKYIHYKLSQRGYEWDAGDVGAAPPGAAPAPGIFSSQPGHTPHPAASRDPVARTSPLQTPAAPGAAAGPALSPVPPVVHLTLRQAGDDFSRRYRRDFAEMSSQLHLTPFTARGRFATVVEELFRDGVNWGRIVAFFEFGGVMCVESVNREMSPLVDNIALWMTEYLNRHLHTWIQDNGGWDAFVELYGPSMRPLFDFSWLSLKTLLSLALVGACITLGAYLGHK

IC50, < 10 nM:
CC(C)c1ccccc1[C@@H]1CCCN1C1CC2(CCN(c3ccc(C(=O)NS(=O)(=O)c4cc([N+](=O)[O-])c(NCC5(F)CCN(C(C)C)CC5)c5[nH]ccc45)c(Oc4cnc5[nH]ccc5c4)c3)CC2)C1 [compound 010, (S)-2-((1H-pyrrolo[2,3-b]pyrid-5-yl)oxy)-N-((7-(((4-fluoro-1-isopropylpiperid-4-yl)methyl)amino)-6-nitro-1H-indol-4-yl)sulfonyl)-4-(2-(2-(2-isopropylphenyl)pyrrolidin-1-yl)-7-azaspiro[3.5]non-7-yl)benzamide]
COc1ccc(CN2CCN(C3CC4(CCN(c5cc(Oc6cnc7[nH]ccc7c6)c(C(=O)NS(=O)(=O)c6cc([N+](=O)[O-])c(NCC7CCOCC7)c7[nH]cnc67)cn5)CC4)C3)C(c3ccccc3C(C)C)C2)cc1 (stereo not drawn) [compound 075, 4-((1H-pyrrolo[2,3-b]pyrid-5-yl)oxy)-6-(2-(2-(2-isopropylphenyl)-4-(4-methoxybenzyl)piperazin-1-yl)-7-azaspiro[3.5]non-7-yl)-N-((6-nitro-7-(((tetrahydro-2H-pyran-4-yl)methyl)amino)-1H benzo[d]imidazol-4-yl)sulfonyl) nicotinamide]
COc1ccc(CN2CCN(C3CC4(CCN(c5ccc(C(=O)NS(=O)(=O)c6cc([N+](=O)[O-])c(NC[C@H]7CC[C@](C)(O)CC7)c7[nH]cnc67)c(Oc6cnc7[nH]ccc7c6)c5)CC4)C3)C(c3ccccc3C(C)C)C2)cc1 (stereo partly drawn) [compound 039, 2-((1H-pyrrolo[2,3-b]pyrid-5-yl)oxy)-N-((7-((((1r,4r)-4-hydroxy-4-methylcyclohexyl)methyl)amino)-6-nitro-1H-benzo[d]imidazol-4-yl)sulfonyl)-4-(2-(2-(2-isopropylphenyl)-4-(4-methoxybenzyl)piperazin-1-yl)-7-azaspiro[3.5]non-7-yl)benzamide]
COc1cc(CN2CCN(C3CC4(CCN(c5cc(Oc6cnc7[nH]ccc7c6)c(C(=O)NS(=O)(=O)c6ccc(NCC7(F)CCOCC7)c([N+](=O)[O-])c6)cc5F)CC4)C3)[C@H](c3ccccc3C(C)C)C2)cc2cc(C)oc12 [compound 202, (R)-2-((1H-pyrrolo[2,3-b]pyrid-5-yl)oxy)-5-fluoro-N-((4-(((4-fluorotetrahydro-2H-pyran-4-yl)methyl)amino)-3-nitrophenyl)sulfonyl)-4-(2-(2-(2-isopropylphenyl)-4-((7-methoxy-2-methylbenzofuran-5-yl)methyl)piperazin-1-yl)-7-azaspiro[3.5]non-7-yl)benzamide]
COc1ccc(CN2CCN(C3CC4(CCN(c5cc(Oc6cnc7[nH]ccc7c6)c(C(=O)NS(=O)(=O)c6cc([N+](=O)[O-])c(NCC7(F)CCOCC7)c7occc67)cc5F)CC4)C3)[C@H](c3ccccc3C(C)C)C2)cc1 [compound 109, (R)-2-((1H-pyrrolo[2,3-b]pyrid-5-yl)oxy)-5-fluoro-N-((7-(((4-fluorotetrahydro-2H-pyran-4-yl)methyl)amino)-6-nitrobenzofuran-4-yl)sulfonyl)-4-(2-(2-(2-isopropylphenyl)-4-(4-methoxybenzyl)piperazin-1-yl)-7-azaspiro[3.5]non-7-yl)benzamide]
CC(=O)Nc1ccc(CN2CCN(C3CC4(CCN(c5cc(Oc6cnc7[nH]ccc7c6)c(C(=O)NS(=O)(=O)c6ccc(NCC7(F)CCOCC7)c([N+](=O)[O-])c6)cc5F)CC4)C3)[C@H](c3ccccc3C(C)C)C2)cc1 [compound 200, (R)-2-((1H-pyrrolo[2,3-b]pyrid-5-yl)oxy)-4-(2-(4-(4-acetylaminobenzyl)-2-(2-isopropylphenyl)piperazin-1-yl)-7-azaspiro[3.5]non-7-yl)-5-fluoro-N-((4-(((4-fluorotetrahydro-2H-pyran-4-yl)methyl)amino)-3-nitrophenyl)sulfonyl)benzamide]
COc1ccc(CN2CCN(C3CC4(CCN(c5ccc(C(=O)NS(=O)(=O)c6cc([N+](=O)[O-])c(NCC7(F)CCOCC7)c7[nH]cnc67)c(Oc6cnc7[nH]ccc7c6)c5)CC4)C3)C(c3ccccc3C(C)C)C2)cc1 (stereo not drawn) [compound 047, 2-((1H-pyrrolo[2,3-b]pyrid-5-yl)oxy)-N-((7-(((4-fluorotetrahydro-2H-pyran-4-yl)methyl)amino)-6-nitro-1H-benzo[d]imidazol-4-yl)sulfonyl)-4-(2-(2-(2-isopropylphenyl)-4-(4-methoxybenzyl)piperazin-1-yl)-7-azaspiro[3.5]non-7-yl)benzamide]
COc1ccc(CN2CCN(C3CC4(CCN(c5cc(Oc6cnc7[nH]ccc7c6)c(C(=O)NS(=O)(=O)c6cc([N+](=O)[O-])c(NC[C@H]7COCCO7)c7ocnc67)cc5F)CC4)C3)[C@H](c3ccccc3C(C)C)C2)cc1 [compound 124]
CC(C)c1ccccc1[C@@H]1CCCN1C1CC2(CCN(c3ccc(C(=O)NS(=O)(=O)c4cc([N+](=O)[O-])c(NC[C@H]5CC[C@](C)(O)CC5)c5[nH]cnc45)c(Oc4cnc5[nH]cc(F)c5c4)c3)CC2)C1 [compound 011, 2-((3-fluoro-1H-pyrrolo[2,3-b]pyrid-5-yl)oxy)-N-((7-((((1r,4r)-4-hydroxy-4-methylcyclohexyl)methyl)amino)-6-nitro-1H-benzo[d]imidazol-4-yl)sulfonyl)-4-(2-((S)-2-(2-isopropylphenyl)pyrrolidin-1-yl)-7-azaspiro[3.5]non-7-yl)benzamide]
COc1ccc(CN2CCN(C3CC4(CCN(c5cc(Oc6cnc7[nH]ccc7c6)c(C(=O)NS(=O)(=O)c6cc([N+](=O)[O-])c(NCC7(F)CCOCC7)c7c6ncc(=O)n7C)cc5F)CC4)C3)[C@H](c3ccccc3C(C)C)C2)cc1
COc1ccc(CN2CCN(C3CC4(CCN(c5ccc(C(=O)NS(=O)(=O)c6cc([N+](=O)[O-])c(NCC7(F)CCOCC7)c7c6OCCO7)c(Oc6cnc7[nH]ccc7c6)c5)CC4)C3)[C@H](c3ccccc3C(C)C)C2)cc1 [compound 181]
CC(C)c1ccccc1[C@@H]1CCCN1C1CC2(CCN(c3cc(Oc4cnc5[nH]ccc5c4)c(C(=O)NS(=O)(=O)c4cc([N+](=O)[O-])c(NCC5(F)CCN(CC(F)(F)F)CC5)c5[nH]cnc45)cn3)CC2)C1 [compound 031, (S)-4-((1H-pyrrolo[2,3-b]pyrid-5-yl)oxy)-N-((7-(((4-fluoro-1-(2,2,2-trifluoroethyl)piperid-4-yl)methyl)amino)-6-nitro-1H-benzo[d]imidazol-4-yl)sulfonyl)-6-(2-(2-(2-isopropylphenyl)pyrrolidin-1-yl)-7-azaspiro[3.5]non-7-yl) nicotinamide]
CC(C)c1ccccc1[C@@H]1CN(Cc2cnn(C(C)C)c2)CCN1C1CC2(CCN(c3cc(Oc4cnc5[nH]ccc5c4)c(C(=O)NS(=O)(=O)c4ccc(NCC5(F)CCOCC5)c([N+](=O)[O-])c4)cc3F)CC2)C1 [compound 210, (R)-2-((1H-pyrrolo[2,3-b]pyrid-5-yl)oxy)-5-fluoro-N-((4-(((4-fluorotetrahydro-2H-pyran-4-yl)methyl)amino)-3-nitrophenyl)sulfonyl)-4-(2-(4-((1-isopropyl-1H-pyrazol-4-yl)methyl)-2-(2-isopropylphenyl)piperazin-1-yl)-7-azaspiro[3.5]non-7-yl)benzamide]
COc1ccc(CN2CCN(C3CC4(CCN(c5cc(Oc6cnc7[nH]ccc7c6)c(C(=O)NS(=O)(=O)c6cc([N+](=O)[O-])c(NC[C@H]7CC[C@](C)(O)CC7)c7[nH]cnc67)cn5)CC4)C3)C(c3ccccc3C(C)C)C2)cc1 (stereo partly drawn) [compound 067, 4-((1H-pyrrolo[2,3-b]pyrid-5-yl)oxy)-N-((7-((((1r,4r)-4-hydroxy-4-methylcyclohexyl)methyl)amino)-6-nitro-1H-benzo[d]imidazol-4-yl)sulfonyl)-6-(2-(2-(2-isopropylphenyl)-4-(4-methoxybenzyl)piperazin-1-yl)-7-azaspiro[3.5]non-7-yl) nicotinamide]
CC(C)c1ccccc1[C@@H]1CN(Cc2ccc(F)c(F)c2)CCN1C1CC2(CCN(c3ccc(C(=O)NS(=O)(=O)c4cc([N+](=O)[O-])c(NC[C@H]5CC[C@](C)(O)CC5)c5c4OCO5)c(Oc4cnc5[nH]ccc5c4)c3)CC2)C1 [compound 176, 2-((1H-pyrrolo[2,3-b]pyrid-5-yl)oxy)-4-(2-((R)-4-(3,4-difluorobenzyl)-2-(2-isopropylphenyl)piperazin-1-yl)-7-azaspiro[3.5]non-7-yl)-N-((7-((((1r, 4r)-4-hydroxy-4-methylcyclohexyl)methyl)amino)-6-nitrobenzo[d][1,3]dioxocyclopent-4-yl)sulfonyl)benzamide]
CC(C)c1ccccc1[C@@H]1CCCN1C1CC2(CCN(c3cc(Oc4cnc5[nH]ccc5c4)c(C(=O)NS(=O)(=O)c4cc([N+](=O)[O-])c(NCC5(F)CCOCC5)c5ocnc45)cc3F)CC2)C1 [compound 103, (S)-2-((1H-pyrrolo[2,3-b]pyrid-5-yl)oxy)-5-fluoro-N-((7-(((4-fluorotetrahydro-2H-pyran-4-yl)methyl)amino)-6-nitrobenzo[d]oxazol-4-yl)sulfonyl)-4-(2-(2-(2-isopropylphenyl)pyrrolidin-1-yl)-7-azaspiro[3.5]non-7-yl)benzamide]
CC(C)c1ccccc1[C@@H]1CCCN1C1CC2(CCN(c3cc(Oc4cnc5[nH]ccc5c4)c(C(=O)NS(=O)(=O)c4cc([N+](=O)[O-])c(NC[C@H]5C[C@@](C)(O)C5)c5[nH]cnc45)cn3)CC2)C1 [compound 017, 4-((1H-pyrrolo[2,3-b]pyrid-5-yl)oxy)-N-((7-((((1S,3S)-3-hydroxy-3-methylcyclobutyl)methyl)amino)-6-nitro-1H-benzo[d]imidazol-4-yl)sulfonyl)-6-(2-((S)-2-(2-isopropylphenyl)pyrrolidin-1-yl)-7-azaspiro[3.5]non-7-yl) nicotinamide]
CC(C)c1ccccc1[C@@H]1CCCN1C1CC2(CCN(c3cc(Oc4cnc5[nH]ccc5c4)c(C(=O)NS(=O)(=O)c4cc([N+](=O)[O-])c(NC[C@H]5CC[C@](C)(O)CC5)c5c4OCCO5)cc3F)CC2)C1 [compound 099, 2-((1H-pyrrolo[2,3-b]pyrid-5-yl)oxy)-5-fluoro-N-((8-((((1r, 4r)-4-hydroxy-4-methylcyclohexyl)methyl)amino)-7-nitro-2,3-dihydrobenzo[b][1,4]dioxan-5-yl)sulfonyl)-4-(2-((S)-2-(2-isopropylphenyl)pyrrolidin-1-yl)-7-azaspiro[3.5]non-7-yl)benzamide]
